Tested on: adults with nonalcoholic fatty liver disease (NAFLD)/presumed nonalcoholic steatohepatitis (NASH)
Assay: 52-week Phase 3 trial (Example 1): thyroid hormone levels
Assay type: in vivo, human
Settings: for FT3 (not on thyroxine) LSM Difference / FT3 (thyroxine-treated) LSM Difference / FT3/rT3 (not on thyroxine) LSM Difference / FT3/rT3 (thyroxine-treated) LSM Difference / FT3/rT3 LSM Difference / FT3 LSM Difference / FT4 (not on thyroxine) LSM Difference in % CFB / FT4 (not on thyroxine) LSM Difference in CFB / FT4 (thyroxine-treated) LSM Difference in % CFB / FT4 (thyroxine-treated) LSM Difference in CFB / FT4 LSM Difference in % CFB / FT4 LSM Difference in CFB / TBG (not on thyroxine) LSM Difference / TBG (thyroxine-treated) LSM Difference / TBG LSM Difference / TSH (not on thyroxine) LSM Difference / TSH (thyroxine-treated) LSM Difference / TSH LSM Difference / rT3 (not on thyroxine) LSM Difference / rT3 (thyroxine-treated) LSM Difference / rT3 LSM Difference / FT3 (not on thyroxine) LSM CFB / FT3 (thyroxine-treated) LSM CFB / FT3/rT3 (not on thyroxine) LSM CFB / FT3/rT3 (thyroxine-treated) LSM CFB / FT3/rT3 LSM CFB / FT3 LSM CFB / FT4 (not on thyroxine) LSM % CFB / FT4 (not on thyroxine) LSM CFB / FT4 (thyroxine-treated) LSM % CFB / FT4 (thyroxine-treated) LSM CFB / FT4 LSM % CFB / FT4 LSM CFB / TBG (not on thyroxine) LSM CFB / TBG (thyroxine-treated) LSM CFB / TBG LSM CFB / TSH (not on thyroxine) LSM CFB / TSH (thyroxine-treated) LSM CFB / TSH LSM CFB / rT3 (not on thyroxine) LSM CFB / rT3 (thyroxine-treated) LSM CFB / rT3 LSM CFB: Week 52
Method: A 52-week randomized, double-blind, placebo-controlled Phase 3 trial was conducted to evaluate the safety and effect of resmetirom, an oral, once-daily, liver-targeted thyroid hormone receptor-β selective agonist, on multiple biomarkers in adults with nonalcoholic fatty liver disease (NAFLD)/presumed nonalcoholic steatohepatitis (NASH). Patients were randomized to three double-blind arms (100 mg resmetirom, 80 mg resmetirom, or placebo) or one open-label arm (100 mg resmetirom). Common concomitant medications across the 4 arms were antidiabetes drugs (such as glucagon-like peptide-1 receptor agonists (GLP-1 RAs), metformin, pioglitazone, and sodium/glucose cotransporter-2 inhibitors (SGLT2i)) and drugs to manage dyslipidemia (statins).
Sex hormone levels after 52 weeks of resmetirom treatment are shown in Table A. Thyroid hormone levels after 52 weeks of resmetirom treatment are reported in Table B.

[1] = Resmetirom 80 mg DB vs Placebo DB
[2] = Resmetirom 100 mg DB vs Placebo DB

SMILES: CC(C)c1cc(Oc2c(Cl)cc(-n3nc(C#N)c(=O)[nH]c3=O)cc2Cl)n[nH]c1=O [Resmetirom, 2-[3,5-dichloro-4-[(6-oxo-5-propan-2-yl-1H-pyridazin-3-yl)oxy]phenyl]-3,5-dioxo-1,2,4-triazine-6-carbonitrile]
- FT3 (not on thyroxine) LSM Difference [1]: 0.1 ng/L
- FT3 (thyroxine-treated) LSM Difference [1]: 0.0 ng/L
- FT3/rT3 (not on thyroxine) LSM Difference [1]: 0.05
- FT3/rT3 (thyroxine-treated) LSM Difference [1]: 0.03
- FT3/rT3 LSM Difference [1]: 0.05
- FT3 LSM Difference [1]: 0.1 ng/L
- FT4 (not on thyroxine) LSM Difference in % CFB [1]: −11.0%
- FT4 (not on thyroxine) LSM Difference in CFB [1]: -0.1 ng/dL
- FT4 (thyroxine-treated) LSM Difference in % CFB [1]: −10.2%
- FT4 (thyroxine-treated) LSM Difference in CFB [1]: -0.1 ng/dL
- FT4 LSM Difference in % CFB [1]: −10.8%
- FT4 LSM Difference in CFB [1]: -0.1 ng/dL
- TBG (not on thyroxine) LSM Difference [1]: -1.2 mg/L
- TBG (thyroxine-treated) LSM Difference [1]: -0.6 mg/L
- TBG LSM Difference [1]: -1.1 mg/L
- TSH (not on thyroxine) LSM Difference [1]: 0.0 mIU/L
- TSH (thyroxine-treated) LSM Difference [1]: −0.3 mIU/L
- TSH LSM Difference [1]: −0.0 mIU/L
- rT3 (not on thyroxine) LSM Difference [1]: -3.3 ng/dL
- rT3 (thyroxine-treated) LSM Difference [1]: -4.4 ng/dL
- rT3 LSM Difference [1]: -3.4 ng/dL
- FT3 (not on thyroxine) LSM CFB (Resmetirom 80 mg DB): -0.1 ng/L
- FT3 (thyroxine-treated) LSM CFB (Resmetirom 80 mg DB): 0.0 ng/L
- FT3/rT3 (not on thyroxine) LSM CFB (Resmetirom 80 mg DB): 0.04
- FT3/rT3 (thyroxine-treated) LSM CFB (Resmetirom 80 mg DB): 0.03
- FT3/rT3 LSM CFB (Resmetirom 80 mg DB): 0.04
- FT3 LSM CFB (Resmetirom 80 mg DB): -0.0 ng/L
- FT4 (not on thyroxine) LSM % CFB (Resmetirom 80 mg DB): −9.9%
- FT4 (not on thyroxine) LSM CFB (Resmetirom 80 mg DB): -0.1 ng/dL
- FT4 (thyroxine-treated) LSM % CFB (Resmetirom 80 mg DB): −6.4%
- FT4 (thyroxine-treated) LSM CFB (Resmetirom 80 mg DB): -0.1 ng/dL
- FT4 LSM % CFB (Resmetirom 80 mg DB): −9.6%
- FT4 LSM CFB (Resmetirom 80 mg DB): -0.1 ng/dL
- TBG (not on thyroxine) LSM CFB (Resmetirom 80 mg DB): -0.5 mg/L
- TBG (thyroxine-treated) LSM CFB (Resmetirom 80 mg DB): 1.5 mg/L
- TBG LSM CFB (Resmetirom 80 mg DB): 0.6 mg/L
- TSH (not on thyroxine) LSM CFB (Resmetirom 80 mg DB): −0.3 mIU/L
- TSH (thyroxine-treated) LSM CFB (Resmetirom 80 mg DB): −0.9 mIU/L
- TSH LSM CFB (Resmetirom 80 mg DB): −0.4 mIU/L
- rT3 (not on thyroxine) LSM CFB (Resmetirom 80 mg DB): -2.5 ng/dL
- rT3 (thyroxine-treated) LSM CFB (Resmetirom 80 mg DB): -3.8 ng/dL
- rT3 LSM CFB (Resmetirom 80 mg DB): -2.7 ng/dL
- FT3 (not on thyroxine) LSM Difference [2]: 0.0 ng/L
- FT3 (thyroxine-treated) LSM Difference [2]: -0.0 ng/L
- FT3/rT3 (not on thyroxine) LSM Difference [2]: 0.05
- FT3/rT3 (thyroxine-treated) LSM Difference [2]: 0.04
- FT3/rT3 LSM Difference [2]: 0.05
- FT3 LSM Difference [2]: 0.0 ng/L
- FT4 (not on thyroxine) LSM Difference in % CFB [2]: −15.4%
- FT4 (not on thyroxine) LSM Difference in CFB [2]: -0.2 ng/dL
- FT4 (thyroxine-treated) LSM Difference in % CFB [2]: −23.0%
- FT4 (thyroxine-treated) LSM Difference in CFB [2]: -0.3 ng/dL
- FT4 LSM Difference in % CFB [2]: −16.1%
- FT4 LSM Difference in CFB [2]: -0.2 ng/dL
- TBG (not on thyroxine) LSM Difference [2]: -0.3 mg/L
- TBG (thyroxine-treated) LSM Difference [2]: -2.4 mg/L
- TBG LSM Difference [2]: -0.5 mg/L
- TSH (not on thyroxine) LSM Difference [2]: −0.1 mIU/L
- TSH (thyroxine-treated) LSM Difference [2]: 0.0 mIU/L
- TSH LSM Difference [2]: −0.1 mIU/L
- rT3 (not on thyroxine) LSM Difference [2]: -3.8 ng/dL
- rT3 (thyroxine-treated) LSM Difference [2]: -5.5 ng/dL
- rT3 LSM Difference [2]: -3.9 ng/dL
- FT3 (not on thyroxine) LSM CFB (Resmetirom 100 mg DB): -0.1 ng/L
- FT3 (thyroxine-treated) LSM CFB (Resmetirom 100 mg DB): -0.0 ng/L
- FT3/rT3 (not on thyroxine) LSM CFB (Resmetirom 100 mg DB): 0.04
- FT3/rT3 (thyroxine-treated) LSM CFB (Resmetirom 100 mg DB): 0.04
- FT3/rT3 LSM CFB (Resmetirom 100 mg DB): 0.04
- FT3 LSM CFB (Resmetirom 100 mg DB): -0.1 ng/L
- FT4 (not on thyroxine) LSM % CFB (Resmetirom 100 mg DB): −14.3%
- FT4 (not on thyroxine) LSM CFB (Resmetirom 100 mg DB): -0.2 ng/dL
- FT4 (thyroxine-treated) LSM % CFB (Resmetirom 100 mg DB): −19.2%
- FT4 (thyroxine-treated) LSM CFB (Resmetirom 100 mg DB): -0.2 ng/dL
- FT4 LSM % CFB (Resmetirom 100 mg DB): −14.9%
- FT4 LSM CFB (Resmetirom 100 mg DB): -0.2 ng/dL
- TBG (not on thyroxine) LSM CFB (Resmetirom 100 mg DB): 1.4 mg/L
- TBG (thyroxine-treated) LSM CFB (Resmetirom 100 mg DB): -0.2 mg/L
- TBG LSM CFB (Resmetirom 100 mg DB): 1.1 mg/L
- TSH (not on thyroxine) LSM CFB (Resmetirom 100 mg DB): −0.3 mIU/L
- TSH (thyroxine-treated) LSM CFB (Resmetirom 100 mg DB): −0.6 mIU/L
- TSH LSM CFB (Resmetirom 100 mg DB): −0.4 mIU/L
- rT3 (not on thyroxine) LSM CFB (Resmetirom 100 mg DB): -2.9 ng/dL
- rT3 (thyroxine-treated) LSM CFB (Resmetirom 100 mg DB): -4.9 ng/dL
- rT3 LSM CFB (Resmetirom 100 mg DB): -3.2 ng/dL
- FT3 (not on thyroxine) LSM CFB (Resmetirom 100 mg OL): -0.1 ng/L
- FT3 (thyroxine-treated) LSM CFB (Resmetirom 100 mg OL): -0.1 ng/L
- FT3/rT3 (not on thyroxine) LSM CFB (Resmetirom 100 mg OL): 0.05
- FT3/rT3 (thyroxine-treated) LSM CFB (Resmetirom 100 mg OL): 0.03
- FT3/rT3 LSM CFB (Resmetirom 100 mg OL): 0.04
- FT3 LSM CFB (Resmetirom 100 mg OL): -0.2 ng/L
- FT4 (not on thyroxine) LSM % CFB (Resmetirom 100 mg OL): −18.9%
- FT4 (not on thyroxine) LSM CFB (Resmetirom 100 mg OL): -0.2 ng/dL
- FT4 (thyroxine-treated) LSM % CFB (Resmetirom 100 mg OL): −14.8%
- FT4 (thyroxine-treated) LSM CFB (Resmetirom 100 mg OL): -0.2 ng/dL
- FT4 LSM % CFB (Resmetirom 100 mg OL): −16.1%
- FT4 LSM CFB (Resmetirom 100 mg OL): -0.2 ng/dL
- TBG (not on thyroxine) LSM CFB (Resmetirom 100 mg OL): 0.7 mg/L
- TBG (thyroxine-treated) LSM CFB (Resmetirom 100 mg OL): -1.0 mg/L
- TBG LSM CFB (Resmetirom 100 mg OL): 0.1 mg/L
- TSH (not on thyroxine) LSM CFB (Resmetirom 100 mg OL): −0.2 mIU/L
- TSH (thyroxine-treated) LSM CFB (Resmetirom 100 mg OL): 0.4 mIU/L
- TSH LSM CFB (Resmetirom 100 mg OL): 0.2 mIU/L
- rT3 (not on thyroxine) LSM CFB (Resmetirom 100 mg OL): -3.5 ng/dL
- rT3 (thyroxine-treated) LSM CFB (Resmetirom 100 mg OL): -3.9 ng/dL
- rT3 LSM CFB (Resmetirom 100 mg OL): -3.3 ng/dL
- effect on active hormone free triiodothyronine (FT3) (resmetirom arms): No effects
- effect on thyroid-stimulating hormone (TSH) (resmetirom arms): No effects
- prohormone FT4 levels, change from baseline (resmetirom arms): Minimal reductions from baseline
